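Cultured in 96-well plates, cells were exposed to test compound for 48 hours across five concentrations. Definition used: TGI = concentration required for complete inhibition of growth.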
How the values were obtained:
Assay in all cases: inhibition of tumour cell growth, NCI panel, 48 h
[1] = test system: HT29 colon
[2] = test system: UACC-62 melanoma
[3] = test system: MALME-3M melanoma
[4] = test system: RPMI-8226 leukemia
[5] = test system: NCI-H522 lung
[6] = test system: SK-OV-3 ovarian
[7] = test system: SW-620 colon
[8] = test system: SK-MEL-5 melanoma
[9] = test system: PC-3 prostate
[10] = test system: HCT-15 colon

Row | Structure (SMILES) | TGI [1] | TGI [2] | TGI [3] | TGI [4] | TGI [5] | TGI [6] | TGI [7] | TGI [8] | TGI [9] | TGI [10]
1 | CCCCCCCCCCCCCCCCCCNc1ccn(C2OC(COP(=O)(O)OCC3OC(n4cc(F)c(NCCCCCCCCCCCCCCCCCC)nc4=O)CC3O)C(O)C2O)c(=O)n1 (stereo not given) | > 100 µM | > 100 µM | > 100 µM | > 100 µM | > 100 µM | > 100 µM | > 100 µM | > 100 µM | > 100 µM | > 100 µM
2 | O=C(O)c1ccn(-c2cccc(-n3ccc(C(=O)O)n3)n2)n1 | > 100 µM | > 100 µM | > 100 µM | > 100 µM | > 100 µM | > 100 µM | > 100 µM | > 100 µM | > 100 µM | > 100 µM
3 | CN1CCN(CCCBr)CC1 | > 100 µM | > 100 µM | > 100 µM | > 100 µM | > 100 µM | > 100 µM | > 100 µM | > 100 µM | > 100 µM | > 100 µM
4 | O=C1/C(=N\S(=O)(=O)c2ccccc2)C([n+]2ccc(Cc3ccccc3)cc2)=C([O-])c2ccccc21 | 1.49 µM | 2.42 µM | 1.73 µM | > 100 µM | 2.11 µM | 18.5 µM | 1.96 µM | 0.302 µM | 9.39 µM | 3.36 µM
5 | CCOC(=O)c1c(N2CCCC2)ncn(Cc2ccccc2)c1=S | > 100 µM | > 100 µM | > 100 µM | > 100 µM | > 100 µM | > 100 µM | > 100 µM | > 100 µM | > 100 µM | > 100 µM
